Laboratory results reported in patent US7504203B2 (priority 2002, dated 2009).

Target: GST-fused SCDH enzyme expressed from the standard strain cDNA (Pyricularia oryzae, UniProt P56221)
Type: biochemical, rice blast fungus (Pyricularia oryzae)

GST-fused SCDH enzyme expressed from the standard strain cDNA, sequence (P56221 whole entry, looked up, the tested form may be a part): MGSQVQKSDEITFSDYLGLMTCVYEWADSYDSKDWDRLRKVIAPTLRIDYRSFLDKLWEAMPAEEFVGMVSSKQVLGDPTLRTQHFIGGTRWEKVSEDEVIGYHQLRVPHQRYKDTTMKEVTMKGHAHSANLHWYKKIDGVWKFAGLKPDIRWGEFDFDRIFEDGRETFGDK

`CCC1(C(=O)N[C@H](C)c2ccc(Cl)cc2)C(C)C1(Cl)Cl` (stereo partly shown) [carpropamid] was tested, and the “drug sensitivity compared with SCDH enzyme in crude enzyme solution from rice blast fungus” value was “exhibited the same drug sensitivity”.
